Assay results as given in patent US20240417688A1, “METHODS AND SYSTEMS FOR ADIPOCYTES DIFFERENTIATION” (priority 2021, published 2024).

System: Mesenchymal Stem cells (MSCs)
Experiment: Oil Red O staining and quantification of adipogenic differentiation of MSCs in 2D culture
Format: cell-based
Conditions: FIG. 3; plate reader
Method: Palmitoleic, erusic, elaidic, and oleic acids are diluted to 20 mM concentration in ethanol absolute. Each FFA is prepared separately, following which, all […] FFAs are mixed together at equal volumes to create the FFA stock mix.
The stock mix is then added to cell growth medium at a concentration of 100 uM per FFA (dilution of 1:50 from stock mix).
Food grade sunflower lecithin is suspended in PBS 1× at 50 mg/ml concentration, and the suspension is sonicated at medium speed for 1-2 min, to then reach a homogenized solution then filtered through a 0.22 μm filter. The lecithin emulsion is added to cell growth medium at a concentration of 1 mg/ml (dilution of 1:50 from stock solution).
The two mediums were refreshed every 3 days and Oil red O quantification was performed on day 8 of contact.
It is noted, that high cell density can cause a curling effect that produced a cell aggregate, reveling underlying cells. A. (negative control culture)—The cell aggregate falsely stained by ORO (A2); the aggregation reviles few cells on the surface of the well (A1). B. (4FFAs+Insulin treatment) Cells produce a sheet that detaches from the surface (B1), with underlying differentiating cells (B3). C. […]
Turning now to FIG. 3, where Oil Red O (ORO) quantification was carried out after extraction using 2-propanol. ORO was extracted and quantified by absorption reading in a plate reader at 492 nm. […]

In the case of insulin, the “Oil Red O (ORO) quantity, absorption at 492 nm after 2-propanol extraction, versus control” value is reported as “no statistical difference than control”.
